Assay results reported in patent US20260191933A1, “PHARMACEUTICAL COMBINATIONS AND USES THEREOF” (The University of Melbourne, priority 2022, published 2026).

Experiments:
chondroitin 4-sulfate = assay: CSPG-ECM binding assay, chondroitin 4-sulfate; conditions: plates coated with chondroitin 4-sulfate (C4S), 2-hours
Description: (§1) To determine the interaction of insulin with CSPG-ECM components in vitro, flat-bottom 96-well plates were first coated with 10 μg/ml poly-L-lysine overnight, followed by a rinsing with water. A purified CSPGs mix containing neurocan, phosphacan, versican and aggrecan (CC117, Merck Millipore, MA), purified aggrecan (A1960, Merck Millipore, MA) or purified chondroitin 4-sulfate (59004, Selleck Chemicals, TX), were coated onto the 96-well plates at a concentration of 10 μg/ml for 4 h at RT, followed by a rinse with water. Insulin-FITC was incubated on plates containing ECM at concentrating ranging from 5 ng/ml-1 mg/ml for 2 h at RT and protected from light. Control wells contained either no ECM, bovine serum albumin (10 μg/ml) or poly-L-lysine alone. Wells were washed 3 times with water and imaged at 495 nm using a SPECTROstar Nano Microplate Reader (BMG Labtech, Germany). To digest CSPG-ECM or to negate CSPG-ECM negative charge. wells were incubated with either chABC (0.5 U/ml) or poly-1-arginine (10 μg/ml, P7762, Merck Millipore, MA) for 1 h at 37° C. after the ECM coating, washed 3 times with water and then incubated with insulin-FITC.

[1] = test system: mixed CSPGs (aggrecan, neurocan, phosphacan and versican); assay: CSPG-ECM binding assay, mixed CSPGs
Description: as §1

aggrecan = target: T1, aggrecan (Bos taurus, UniProt P13608); assay: CSPG-ECM binding assay, aggrecan; conditions: plates coated with aggrecan, 2-hours
T1 construct: purchased Merck Millipore A1960
T1 sequence (P13608 17-2364): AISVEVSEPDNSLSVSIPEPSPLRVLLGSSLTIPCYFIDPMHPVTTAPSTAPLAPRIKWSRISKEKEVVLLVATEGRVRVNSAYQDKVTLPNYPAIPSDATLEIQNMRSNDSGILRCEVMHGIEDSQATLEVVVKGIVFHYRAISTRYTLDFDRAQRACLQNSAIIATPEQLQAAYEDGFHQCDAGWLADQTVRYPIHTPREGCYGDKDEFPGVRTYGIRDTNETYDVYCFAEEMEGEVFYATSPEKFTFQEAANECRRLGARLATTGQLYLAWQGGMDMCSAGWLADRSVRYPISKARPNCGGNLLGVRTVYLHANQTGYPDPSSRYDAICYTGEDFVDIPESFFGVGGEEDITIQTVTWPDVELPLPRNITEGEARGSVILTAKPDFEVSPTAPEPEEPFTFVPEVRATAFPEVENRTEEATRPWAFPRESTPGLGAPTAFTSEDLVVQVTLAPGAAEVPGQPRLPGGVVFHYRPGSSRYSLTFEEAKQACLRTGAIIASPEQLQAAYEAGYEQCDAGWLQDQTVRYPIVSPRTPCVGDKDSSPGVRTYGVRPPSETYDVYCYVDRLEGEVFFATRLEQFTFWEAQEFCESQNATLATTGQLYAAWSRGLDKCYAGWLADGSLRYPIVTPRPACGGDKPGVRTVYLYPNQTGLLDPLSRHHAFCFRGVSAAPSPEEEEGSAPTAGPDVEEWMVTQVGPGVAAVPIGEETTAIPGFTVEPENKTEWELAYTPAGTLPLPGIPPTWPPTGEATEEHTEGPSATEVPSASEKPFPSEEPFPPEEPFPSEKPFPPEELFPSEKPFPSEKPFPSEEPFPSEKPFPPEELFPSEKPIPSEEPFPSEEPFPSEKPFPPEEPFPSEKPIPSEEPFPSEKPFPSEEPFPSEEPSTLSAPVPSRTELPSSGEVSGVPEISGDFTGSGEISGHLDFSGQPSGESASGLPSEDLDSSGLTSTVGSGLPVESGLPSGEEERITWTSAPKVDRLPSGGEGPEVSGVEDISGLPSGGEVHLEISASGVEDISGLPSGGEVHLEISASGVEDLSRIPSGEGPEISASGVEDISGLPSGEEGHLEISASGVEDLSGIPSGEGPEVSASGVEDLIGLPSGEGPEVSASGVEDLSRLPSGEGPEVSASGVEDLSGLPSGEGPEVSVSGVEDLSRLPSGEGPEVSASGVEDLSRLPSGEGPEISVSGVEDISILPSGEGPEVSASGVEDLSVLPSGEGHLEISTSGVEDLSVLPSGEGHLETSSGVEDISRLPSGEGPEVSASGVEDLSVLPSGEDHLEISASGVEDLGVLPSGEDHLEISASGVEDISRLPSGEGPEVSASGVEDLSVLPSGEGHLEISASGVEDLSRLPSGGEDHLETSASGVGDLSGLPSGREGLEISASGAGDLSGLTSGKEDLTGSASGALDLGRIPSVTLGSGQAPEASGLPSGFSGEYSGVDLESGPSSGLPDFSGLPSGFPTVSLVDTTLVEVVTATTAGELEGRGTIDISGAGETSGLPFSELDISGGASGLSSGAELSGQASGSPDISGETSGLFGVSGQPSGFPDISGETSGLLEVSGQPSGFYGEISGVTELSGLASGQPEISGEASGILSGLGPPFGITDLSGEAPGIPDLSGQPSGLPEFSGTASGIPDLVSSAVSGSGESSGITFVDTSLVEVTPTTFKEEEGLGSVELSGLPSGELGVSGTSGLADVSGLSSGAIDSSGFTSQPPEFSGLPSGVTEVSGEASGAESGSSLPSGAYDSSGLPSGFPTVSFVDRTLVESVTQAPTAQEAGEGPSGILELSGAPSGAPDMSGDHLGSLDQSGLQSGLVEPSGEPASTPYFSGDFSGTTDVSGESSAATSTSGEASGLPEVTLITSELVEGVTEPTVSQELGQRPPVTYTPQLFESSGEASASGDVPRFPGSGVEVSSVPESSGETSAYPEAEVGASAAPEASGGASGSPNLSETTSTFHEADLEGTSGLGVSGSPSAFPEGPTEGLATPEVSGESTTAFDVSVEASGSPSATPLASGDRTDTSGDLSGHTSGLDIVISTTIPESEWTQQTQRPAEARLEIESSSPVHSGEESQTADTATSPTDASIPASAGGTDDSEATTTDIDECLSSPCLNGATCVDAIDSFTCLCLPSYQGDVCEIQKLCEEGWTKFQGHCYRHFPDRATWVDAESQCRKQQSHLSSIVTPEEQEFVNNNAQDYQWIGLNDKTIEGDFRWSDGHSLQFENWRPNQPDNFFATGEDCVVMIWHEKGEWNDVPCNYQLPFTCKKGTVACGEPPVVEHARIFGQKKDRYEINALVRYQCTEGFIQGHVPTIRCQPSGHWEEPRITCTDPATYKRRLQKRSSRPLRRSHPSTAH
Description: as §1

binding of insulin-FITC (chondroitin 4-sulfate)	binding of insulin-FITC ([1]; plates coated with mixed CSPGs, 2-hours)	binding of insulin-FITC (aggrecan)	insulin-ECM interactions ([1]; CSPG mix, in the presence of poly-arginine)	Substance
specific dose-dependent binding	specific dose-dependent binding	specific dose-dependent binding		insulin-FITC: fluorescein isothiocyanate tagged insulin
			significantly reduced	poly-arginine
